In patent publication US20170327827A1, “ADIPOCYTE-SPECIFIC CONSTRUCTS AND METHODS FOR INHIBITING PLATELET-TYPE 12 LIPOXYGENASE EXPRESSION” (The Medical Research, Infrastructure, and Health Services …, priority 2006, published 2017):
“Also recorded” adds a separate entry of the source.

Tests used:
Type in all cases: cell-based, murine
[1] = test system: 3T3-L1 cells; experiment: Basal cell death of stable 12Lo antisense knockout populations and clones (trypan blue)
[2] = test system: 3T3-L1 stable cell lines; experiment: Necrosis by lactate dehydrogenase (LDH) release
Description: Lactate Dehydrogenase Release (LDH): Necrotic cells release their cytoplasmic contents into the surrounding medium. In recent years the measurement of one such stable enzyme, LDH, has become a standard laboratory marker of necrosis (Goeptar et al., 1994; Moran et al., 1996). Cell cultures and treatments tested for LDH release had their supernatants collected, centrifuged (1,100×g, 5 minutes; to remove particulate debris) and supernatants tested automatically in a centralized facility (in-house) by method of Moran and Schnellmann (Moran et al., 1996), 1996. In each study a positive control for LDH release was a 1/5000 dilution of triton X100 directly into the cell culture, for the period of the bioassay. Negative control was medium without cells.
Cell death can occur as a result of different processes: apoptosis, which is a very programmed process, as well as other less programmed mechanisms such as necrosis. […] In recent years, investigators have been measuring the release of lactate dehydrogenase (LDH) from cells as a measure of cellular necrosis. The contribution of necrosis in the cell death of the 12Lo reduced expressing clones was thus examined by comparing LDH release from control and pCMV600a 12Lo antisense knockout stable preadipocyte cell lines grown in the presence or absence of 12-HETE. In FIG. 15, typical data of such a study is presented.

[3] = test system: 3T3-L1 cells; experiment: DNA fragmentation (Roche Cell Death Detection ELISA) in stable knockout populations and clones; conditions: 10^−7M
Description: DNA Fragmentation (ELISA method): Apoptopic cells show hallmark random DNA fragmentation between nucleosomes. The “Cell Death Detection ELISA” format by Roche (Mannheim, Germany) was used in the following examples. Culture treatments and controls were performed for the tested period and after counting the cells and washing them twice with PBS, 250,000 cells/aliquot were prepared and stored dry at −180° C. until assay. Multiple replicates were usually prepared for assay together on the same day in the same kit. Assay was carried out exactly as described by the manufacturer on 250,000 cells/aliquot.
One hallmark of apoptosis is DNA fragmentation. In the current studies the Roche (Mannheim, Germany) version of this assay was used in the format of an ELISA assay, which measures released intact DNA/Histone-nucleosomes. The results are presented as antisense knockout levels normalized to parallel control values. In the experiment shown in FIGS. 10A-10B, populations of 3T3-L1 cells with either of the two 12Lo antisense knockout plasmids (“mp”-pCMV5′mp12Lo(Pst1)-A; “600a”-pcDNAh60012LoA) versus controls (“Con”) were directly compared: cell death versus relative DNA fragmentation.
To further validate the mechanism of cell death the Roche Cell Death kit was applied as a measure of DNA fragmentation, which is a classic apoptopic hallmark. […]

[4] = test system: 3T3-L1 cells; experiment: G418 selection kill level; conditions: 600 μg/ml G418 over two weeks
Description: 600 μg/ml is enough G418 to kill 100% 3T3-L1 cells over 2 weeks. Thus the levels used clearly distinguish between cells that incorporated G418 resistance (within the expression plasmid used) into their genomes and cells lacking this marker. A few passages after G418 release stable populations should recover and fill the plate.
The Fugene6 protocol was then used again for preparation of 12Lo antisense knockout and control clones together with the G418 selection marker as G418 resistance was built in to the pCDNA3.1 plasmid (see FIGS. 2A-2D). It was herein determined that 600 μg/ml G418 killed 100% of 3T3-L1 cells over two weeks. So on transfection of cells and selection with 650 μg/ml G418 over three weeks only those cells expressing strong […] resistance would survive and grow. Following three weeks of selection G418 release was gradual over the next 1-2 weeks.

| SMILES | effect of added 12-HETE on cell death of 12Lo antisense knockout clones ([1]; 12-HETE 10^−7 M) | effect of 12-HETE on cell survival of control clone ([1]; pCMVCAT stably transfected 3T3-L1 cells, 10^−7M) | effect of 12-HETE on cell necrosis (LDH release) [2] | effect of 12-HETE on DNA fragmentation levels ([3]; each of the pCMV600a clonal stable lines) | DNA fragmentation level on supplemented 12-HETE ([3]; pCMV600a clone 10) | 3T3-L1 cells killed [4] |
| --- | --- | --- | --- | --- | --- | --- |
| CCCCC/C=C\C[C@@H](O)/C=C/C=C\C/C=C\CCCC(=O)O [12-HETE, 12 hydroxyeicosatetraenoic acid] | much less cell death; also recorded: encouraged cell survival | no effect | no effect | reduced the DNA fragmentation levels | nearly “normal” (or control) levels |  |
| CN[C@@H]1[C@@H](O)[C@@H](O[C@@H]2[C@@H](O)[C@H](O[C@H]3O[C@H]([C@@H](C)O)[C@@H](O)[C@H](O)[C@H]3N)[C@@H](N)C[C@H]2N)OC[C@]1(C)O [G418] |  |  |  |  |  | 100% |
